Results from ChEMBL document CHEMBL4507257, “Data for DCP probe ABT-100” (2021).

Tests used:
[1] = target: Tyrosine-protein kinase Tec (Homo sapiens) (UniProt P42680); settings: Compound concentration 1000.0 nM
[2] = target: Tyrosine-protein kinase CSK (Homo sapiens) (UniProt P41240); settings: Compound concentration 1000.0 nM
[3] = target: Ephrin type-A receptor 5 (Homo sapiens) (UniProt P54756); settings: Compound concentration 1000.0 nM
[4] = target: TRAF2 and NCK-interacting protein kinase (Homo sapiens) (UniProt Q9UKE5); settings: Compound concentration 1000.0 nM
[5] = target: Serine/threonine-protein kinase NLK (Homo sapiens) (UniProt Q9UBE8); settings: Compound concentration 1000.0 nM
[6] = target: Serine/threonine-protein kinase LATS2 (Homo sapiens) (UniProt Q9NRM7); settings: Compound concentration 1000.0 nM
[7] = target: Serine/threonine-protein kinase pim-1 (Homo sapiens) (UniProt P11309); settings: Compound concentration 1000.0 nM
[8] = target: Mitotic checkpoint serine/threonine-protein kinase BUB1 (Homo sapiens) (UniProt O43683); settings: Compound concentration 1000.0 nM
[9] = target: Calcium/calmodulin-dependent protein kinase kinase 1 (Homo sapiens) (UniProt Q8N5S9); settings: Compound concentration 1000.0 nM
[10] = target: Delta-type opioid receptor (Homo sapiens) (UniProt P41143); settings: Compound concentration 10.0 uM
[11] = target: Mitogen-activated protein kinase 4 (Homo sapiens) (UniProt P31152); settings: Compound concentration 1000.0 nM
[12] = target: Casein kinase I isoform alpha-like (Homo sapiens) (UniProt Q8N752); settings: Compound concentration 1000.0 nM
[13] = system: Tyrosine-protein kinase ABL1 (Homo sapiens), P00519 [H396P]; settings: Compound concentration 1000.0 nM
[14] = target: Tyrosine-protein kinase JAK1 (Homo sapiens) (UniProt P23458); settings: Compound concentration 1000.0 nM
[15] = target: Histamine H3 receptor (Homo sapiens) (UniProt Q9Y5N1); settings: Compound concentration 10.0 uM
[16] = target: RAC-gamma serine/threonine-protein kinase (Homo sapiens) (UniProt Q9Y243); settings: Compound concentration 1000.0 nM
[17] = target: Cyclin-dependent kinase 4 (Homo sapiens) (UniProt P11802); settings: Compound concentration 1000.0 nM
[18] = target: Serine/threonine-protein kinase PLK2 (Homo sapiens) (UniProt Q9NYY3); settings: Compound concentration 1000.0 nM
[19] = target: Bone morphogenetic protein receptor type-1A (Homo sapiens) (UniProt P36894); settings: Compound concentration 1000.0 nM
[20] = target: Cyclin-dependent kinase-like 2 (Homo sapiens) (UniProt Q92772); settings: Compound concentration 1000.0 nM
[21] = target: Beta-adrenergic receptor kinase 1 (Homo sapiens) (UniProt P25098); settings: Compound concentration 1000.0 nM
[22] = system: Epidermal growth factor receptor (Homo sapiens), P00533 [UNDEFINED MUTATION]; settings: Compound concentration 1000.0 nM
[23] = target: Mitogen-activated protein kinase kinase kinase 1 (Homo sapiens) (UniProt Q13233); settings: Compound concentration 1000.0 nM
[24] = target: Tyrosine-protein kinase ABL2 (Homo sapiens) (UniProt P42684); settings: Compound concentration 1000.0 nM
[25] = target: Tyrosine-protein kinase Fes/Fps (Homo sapiens) (UniProt P07332); settings: Compound concentration 1000.0 nM
[26] = target: Phosphorylase b kinase gamma catalytic chain, skeletal muscle/heart isoform (Homo sapiens) (UniProt Q16816); settings: Compound concentration 1000.0 nM
[27] = target: Macrophage colony-stimulating factor 1 receptor (Homo sapiens) (UniProt P07333); settings: Compound concentration 1000.0 nM
[28] = target: MAP/microtubule affinity-regulating kinase 4 (Homo sapiens) (UniProt Q96L34); settings: Compound concentration 1000.0 nM
[29] = target: T1, D(4) dopamine receptor (Homo sapiens) (UniProt P21917); settings: Compound concentration 10.0 uM
T1 sequence (whole entry): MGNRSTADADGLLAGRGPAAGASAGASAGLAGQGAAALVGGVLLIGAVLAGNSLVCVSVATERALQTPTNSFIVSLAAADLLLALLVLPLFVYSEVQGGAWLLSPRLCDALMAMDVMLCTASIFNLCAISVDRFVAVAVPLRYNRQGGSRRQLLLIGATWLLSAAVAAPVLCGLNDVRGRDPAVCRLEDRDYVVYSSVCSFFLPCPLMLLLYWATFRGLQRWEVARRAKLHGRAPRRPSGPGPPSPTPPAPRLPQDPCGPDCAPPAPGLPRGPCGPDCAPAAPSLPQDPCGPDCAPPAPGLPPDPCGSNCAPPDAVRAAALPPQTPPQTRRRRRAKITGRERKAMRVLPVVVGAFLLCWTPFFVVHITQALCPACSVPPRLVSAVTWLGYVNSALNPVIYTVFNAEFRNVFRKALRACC

[30] = target: Ribosomal protein S6 kinase alpha-4 (Homo sapiens) (UniProt O75676); settings: Compound concentration 1000.0 nM
[31] = target: Serine/threonine-protein kinase Sgk3 (Homo sapiens) (UniProt Q96BR1); settings: Compound concentration 1000.0 nM
[32] = target: Eukaryotic translation initiation factor 2-alpha kinase 1 (Homo sapiens) (UniProt Q9BQI3); settings: Compound concentration 1000.0 nM
[33] = system: Receptor-type tyrosine-protein kinase FLT3 (Homo sapiens), P36888 [N841I]; settings: Compound concentration 1000.0 nM

Tyrosine-protein kinase CSK (Homo sapiens), sequence (P41240 2-450 limits assumed): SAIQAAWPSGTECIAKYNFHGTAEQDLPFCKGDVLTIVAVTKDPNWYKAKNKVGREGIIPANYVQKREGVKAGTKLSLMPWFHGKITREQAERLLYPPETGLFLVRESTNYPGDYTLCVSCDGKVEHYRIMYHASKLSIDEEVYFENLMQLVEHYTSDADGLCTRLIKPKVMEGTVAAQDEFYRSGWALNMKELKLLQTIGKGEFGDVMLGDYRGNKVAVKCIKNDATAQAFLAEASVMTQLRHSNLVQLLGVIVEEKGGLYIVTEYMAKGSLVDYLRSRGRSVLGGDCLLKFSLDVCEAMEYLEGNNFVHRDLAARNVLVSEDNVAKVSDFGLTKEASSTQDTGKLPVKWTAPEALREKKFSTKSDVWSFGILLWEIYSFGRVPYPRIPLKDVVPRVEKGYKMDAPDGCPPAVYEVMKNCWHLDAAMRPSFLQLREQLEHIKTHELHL
Tyrosine-protein kinase ABL2 (Homo sapiens), sequence (P42684 whole entry): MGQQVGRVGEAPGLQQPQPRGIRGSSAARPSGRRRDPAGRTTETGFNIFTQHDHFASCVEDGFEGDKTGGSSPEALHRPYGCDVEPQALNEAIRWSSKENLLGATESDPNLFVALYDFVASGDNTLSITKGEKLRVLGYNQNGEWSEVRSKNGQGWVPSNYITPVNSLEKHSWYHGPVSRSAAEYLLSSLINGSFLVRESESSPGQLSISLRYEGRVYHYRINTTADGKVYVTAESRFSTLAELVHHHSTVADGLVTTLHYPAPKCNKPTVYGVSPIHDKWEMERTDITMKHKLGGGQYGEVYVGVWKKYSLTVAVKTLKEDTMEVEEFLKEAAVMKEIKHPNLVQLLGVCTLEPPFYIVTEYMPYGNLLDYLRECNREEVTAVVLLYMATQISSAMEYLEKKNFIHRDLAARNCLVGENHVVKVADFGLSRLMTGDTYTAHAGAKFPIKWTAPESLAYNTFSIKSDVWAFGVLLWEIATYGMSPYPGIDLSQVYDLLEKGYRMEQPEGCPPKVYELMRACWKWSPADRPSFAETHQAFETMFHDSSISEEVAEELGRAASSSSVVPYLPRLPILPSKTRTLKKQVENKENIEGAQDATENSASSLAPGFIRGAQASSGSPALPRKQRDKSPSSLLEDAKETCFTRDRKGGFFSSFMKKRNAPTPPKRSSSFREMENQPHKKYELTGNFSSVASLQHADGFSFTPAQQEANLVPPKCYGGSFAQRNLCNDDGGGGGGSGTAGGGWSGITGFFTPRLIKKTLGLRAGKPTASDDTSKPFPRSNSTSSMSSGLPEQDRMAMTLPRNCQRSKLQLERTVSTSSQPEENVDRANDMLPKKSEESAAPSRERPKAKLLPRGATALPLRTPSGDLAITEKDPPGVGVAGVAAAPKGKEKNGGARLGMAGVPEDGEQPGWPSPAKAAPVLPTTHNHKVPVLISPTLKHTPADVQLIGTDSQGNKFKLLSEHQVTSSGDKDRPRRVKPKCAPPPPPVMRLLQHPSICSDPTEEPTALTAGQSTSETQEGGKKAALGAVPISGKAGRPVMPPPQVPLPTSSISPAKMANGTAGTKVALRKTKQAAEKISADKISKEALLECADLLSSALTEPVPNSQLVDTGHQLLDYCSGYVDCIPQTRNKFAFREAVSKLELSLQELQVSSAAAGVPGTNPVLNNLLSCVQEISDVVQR
Beta-adrenergic receptor kinase 1 (Homo sapiens), sequence (P25098 whole entry): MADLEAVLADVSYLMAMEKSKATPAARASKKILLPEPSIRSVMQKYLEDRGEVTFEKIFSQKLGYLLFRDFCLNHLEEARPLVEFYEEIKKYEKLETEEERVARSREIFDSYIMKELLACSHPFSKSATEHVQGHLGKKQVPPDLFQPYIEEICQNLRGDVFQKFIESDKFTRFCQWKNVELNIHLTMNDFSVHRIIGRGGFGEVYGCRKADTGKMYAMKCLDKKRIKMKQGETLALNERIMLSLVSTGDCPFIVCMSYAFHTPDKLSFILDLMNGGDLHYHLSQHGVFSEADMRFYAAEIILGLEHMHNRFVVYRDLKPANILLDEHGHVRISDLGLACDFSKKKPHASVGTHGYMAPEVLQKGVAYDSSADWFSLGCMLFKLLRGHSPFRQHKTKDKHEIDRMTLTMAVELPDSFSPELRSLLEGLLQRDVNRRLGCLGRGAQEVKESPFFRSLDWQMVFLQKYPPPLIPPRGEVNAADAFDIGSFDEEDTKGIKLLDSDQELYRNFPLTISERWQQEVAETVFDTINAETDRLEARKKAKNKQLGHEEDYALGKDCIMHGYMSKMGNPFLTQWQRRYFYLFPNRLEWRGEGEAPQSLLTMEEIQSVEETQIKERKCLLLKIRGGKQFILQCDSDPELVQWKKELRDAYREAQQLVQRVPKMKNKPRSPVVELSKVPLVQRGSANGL
Mitotic checkpoint serine/threonine-protein kinase BUB1 (Homo sapiens), sequence (O43683 whole entry, looked up): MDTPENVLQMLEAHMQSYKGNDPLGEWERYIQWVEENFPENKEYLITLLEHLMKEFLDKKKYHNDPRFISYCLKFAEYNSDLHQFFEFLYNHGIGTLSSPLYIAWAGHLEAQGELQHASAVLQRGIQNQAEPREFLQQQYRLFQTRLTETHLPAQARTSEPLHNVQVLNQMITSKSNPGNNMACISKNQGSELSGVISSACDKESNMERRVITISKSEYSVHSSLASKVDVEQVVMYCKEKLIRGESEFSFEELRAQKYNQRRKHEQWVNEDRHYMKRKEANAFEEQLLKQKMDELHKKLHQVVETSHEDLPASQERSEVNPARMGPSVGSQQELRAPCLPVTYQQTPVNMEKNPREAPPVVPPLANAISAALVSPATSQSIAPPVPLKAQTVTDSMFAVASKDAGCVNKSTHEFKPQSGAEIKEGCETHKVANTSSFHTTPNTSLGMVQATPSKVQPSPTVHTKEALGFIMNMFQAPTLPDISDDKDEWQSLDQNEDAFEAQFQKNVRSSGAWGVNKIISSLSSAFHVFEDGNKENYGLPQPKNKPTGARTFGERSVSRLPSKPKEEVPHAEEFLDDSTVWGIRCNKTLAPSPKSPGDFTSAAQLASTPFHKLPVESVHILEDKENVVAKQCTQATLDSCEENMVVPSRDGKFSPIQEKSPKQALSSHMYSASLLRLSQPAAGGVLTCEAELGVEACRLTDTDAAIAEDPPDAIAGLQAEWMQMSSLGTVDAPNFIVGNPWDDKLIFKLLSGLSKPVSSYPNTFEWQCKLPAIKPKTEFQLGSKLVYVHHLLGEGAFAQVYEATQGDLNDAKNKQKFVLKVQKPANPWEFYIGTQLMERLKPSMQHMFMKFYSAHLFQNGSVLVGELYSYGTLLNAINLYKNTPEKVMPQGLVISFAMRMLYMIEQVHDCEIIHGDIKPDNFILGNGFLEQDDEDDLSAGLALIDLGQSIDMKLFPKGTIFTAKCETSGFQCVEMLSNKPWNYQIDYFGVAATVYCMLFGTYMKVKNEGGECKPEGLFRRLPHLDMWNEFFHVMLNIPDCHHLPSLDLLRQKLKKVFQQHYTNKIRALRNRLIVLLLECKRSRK
Bone morphogenetic protein receptor type-1A (Homo sapiens), sequence (P36894 whole entry): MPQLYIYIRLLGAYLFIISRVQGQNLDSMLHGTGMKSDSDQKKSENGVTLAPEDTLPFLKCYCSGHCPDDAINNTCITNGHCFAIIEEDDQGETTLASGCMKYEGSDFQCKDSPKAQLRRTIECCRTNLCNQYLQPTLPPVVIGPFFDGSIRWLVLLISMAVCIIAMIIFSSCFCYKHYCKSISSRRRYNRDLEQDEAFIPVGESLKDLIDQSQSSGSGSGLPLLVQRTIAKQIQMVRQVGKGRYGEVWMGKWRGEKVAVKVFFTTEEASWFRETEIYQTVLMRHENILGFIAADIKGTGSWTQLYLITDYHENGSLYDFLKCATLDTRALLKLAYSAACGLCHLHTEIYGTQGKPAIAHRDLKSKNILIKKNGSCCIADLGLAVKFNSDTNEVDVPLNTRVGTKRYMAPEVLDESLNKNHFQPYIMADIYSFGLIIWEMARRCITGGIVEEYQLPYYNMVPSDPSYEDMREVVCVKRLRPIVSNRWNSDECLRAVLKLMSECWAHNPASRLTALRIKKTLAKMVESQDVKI
Serine/threonine-protein kinase pim-1 (Homo sapiens), sequence (P11309 whole entry, looked up): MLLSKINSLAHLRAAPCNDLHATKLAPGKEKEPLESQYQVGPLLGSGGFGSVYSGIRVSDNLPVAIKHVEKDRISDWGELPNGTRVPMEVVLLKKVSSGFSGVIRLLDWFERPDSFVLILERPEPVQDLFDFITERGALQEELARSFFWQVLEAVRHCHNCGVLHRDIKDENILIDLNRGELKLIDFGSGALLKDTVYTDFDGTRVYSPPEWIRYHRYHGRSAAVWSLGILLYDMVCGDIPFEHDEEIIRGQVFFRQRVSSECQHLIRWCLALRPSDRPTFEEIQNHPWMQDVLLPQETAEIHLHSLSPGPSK
Casein kinase I isoform alpha-like (Homo sapiens), sequence (Q8N752 whole entry, canonical isoform): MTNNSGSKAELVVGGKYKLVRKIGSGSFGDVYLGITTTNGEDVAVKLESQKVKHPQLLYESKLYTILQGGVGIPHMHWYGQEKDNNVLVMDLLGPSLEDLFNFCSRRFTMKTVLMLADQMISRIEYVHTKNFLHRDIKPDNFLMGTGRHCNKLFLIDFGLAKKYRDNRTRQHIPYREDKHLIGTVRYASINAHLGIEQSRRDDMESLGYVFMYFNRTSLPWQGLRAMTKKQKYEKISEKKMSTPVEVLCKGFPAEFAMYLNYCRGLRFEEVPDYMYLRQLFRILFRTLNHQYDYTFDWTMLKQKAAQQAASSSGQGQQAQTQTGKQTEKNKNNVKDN
Cyclin-dependent kinase 4 (Homo sapiens), sequence (P11802 whole entry): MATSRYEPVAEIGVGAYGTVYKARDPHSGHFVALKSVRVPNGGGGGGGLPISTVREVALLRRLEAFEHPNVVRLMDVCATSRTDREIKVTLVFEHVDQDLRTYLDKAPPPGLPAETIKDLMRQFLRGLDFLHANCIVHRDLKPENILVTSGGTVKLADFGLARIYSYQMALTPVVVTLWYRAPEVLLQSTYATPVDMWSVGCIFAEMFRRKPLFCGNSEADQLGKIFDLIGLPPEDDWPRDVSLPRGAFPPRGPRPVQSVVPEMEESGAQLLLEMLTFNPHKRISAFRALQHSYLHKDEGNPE

Cn1cncc1[C@@](O)(COc1ccc(C#N)cc1-c1ccc(OC(F)(F)F)cc1)c1ccc(C#N)cc1 [A-108]
inactive: residual activity [1] 100% | residual activity [2] 100% | residual activity [3] 67% | residual activity [4] 99% | residual activity [5] 100% | residual activity [6] 100% | residual activity [7] 100% | residual activity [8] 98% | residual activity [9] 100% | inhibition [10] 2.4% | residual activity [11] 90% | residual activity [12] 100% | residual activity [13] 88% | residual activity [14] 100% | inhibition [15] 17.8% | residual activity [16] 100% | residual activity [17] 100% | residual activity [18] 86% | residual activity [19] 100% | residual activity [20] 93% | residual activity [21] 95% | residual activity [22] 100% | residual activity [23] 100% | residual activity [24] 100% | residual activity [25] 100% | residual activity [26] 95% | residual activity [27] 100% | residual activity [28] 100% | inhibition [29] 6.23% | residual activity [30] 93% | residual activity [31] 100% | residual activity [32] 100% | residual activity [33] 100%

Cn1cncc1[C@](O)(COc1ccc(C#N)cc1-c1ccc(OC(F)(F)F)cc1)c1ccc(C#N)cc1 [ABT-100]
inactive: residual activity [1] 93% | residual activity [2] 82% | residual activity [3] 97% | residual activity [4] 81% | residual activity [5] 89% | residual activity [6] 100% | residual activity [7] 96% | residual activity [8] 85% | residual activity [9] 77% | inhibition [10] -0.182% | residual activity [11] 100% | residual activity [12] 74% | residual activity [13] 91% | residual activity [14] 59% | inhibition [15] 5.92% | residual activity [16] 100% | residual activity [17] 100% | residual activity [18] 94% | residual activity [19] 91% | residual activity [20] 88% | residual activity [21] 74% | residual activity [22] 78% | residual activity [23] 90% | residual activity [24] 83% | residual activity [25] 100% | residual activity [26] 63% | residual activity [27] 93% | residual activity [28] 56% | inhibition [29] -1.32% | residual activity [30] 89% | residual activity [31] 100% | residual activity [32] 100% | residual activity [33] 91%
